Assay results as given in article PMC6199744, “Development of Chemical Proteomics for the Folateome and Analysis of the Kinetoplastid Folateome” (ACS Infectious Diseases, 2018).
Read-outs that look alike come from different tables or passages of the source.

What was measured:
Assay type in all cases: binding
[1] = molecular target: T1, HeLa cell extract proteins (Homo sapiens, UniProt P06576)
T1 construct: endogenous in cells; host or cells: HeLa cell extract

[2] = molecular target: T2, HeLa cell extract proteins (Homo sapiens, UniProt P12956)
T2 construct: endogenous in cells; host or cells: HeLa cell extract
T2 sequence (P12956 whole entry): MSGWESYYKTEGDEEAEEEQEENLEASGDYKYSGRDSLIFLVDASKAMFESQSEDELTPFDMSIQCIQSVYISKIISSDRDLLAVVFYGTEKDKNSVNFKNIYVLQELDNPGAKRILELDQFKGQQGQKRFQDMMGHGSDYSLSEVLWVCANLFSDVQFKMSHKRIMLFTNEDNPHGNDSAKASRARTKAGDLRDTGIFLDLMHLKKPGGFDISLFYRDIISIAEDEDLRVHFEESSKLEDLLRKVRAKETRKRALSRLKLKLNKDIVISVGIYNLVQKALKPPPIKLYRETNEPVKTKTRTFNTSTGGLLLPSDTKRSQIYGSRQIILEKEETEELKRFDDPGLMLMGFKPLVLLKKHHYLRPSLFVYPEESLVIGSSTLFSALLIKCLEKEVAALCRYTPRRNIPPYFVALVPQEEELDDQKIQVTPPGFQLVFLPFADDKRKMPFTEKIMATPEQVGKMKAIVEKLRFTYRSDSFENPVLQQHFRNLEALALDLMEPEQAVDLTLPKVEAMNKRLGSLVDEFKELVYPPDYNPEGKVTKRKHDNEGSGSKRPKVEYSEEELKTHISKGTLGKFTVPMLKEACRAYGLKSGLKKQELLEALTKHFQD

[3] = molecular target: T3, HeLa cell extract proteins (Homo sapiens, UniProt P13073)
T3 construct: endogenous in cells; host or cells: HeLa cell extract
T3 sequence (P13073 23-169): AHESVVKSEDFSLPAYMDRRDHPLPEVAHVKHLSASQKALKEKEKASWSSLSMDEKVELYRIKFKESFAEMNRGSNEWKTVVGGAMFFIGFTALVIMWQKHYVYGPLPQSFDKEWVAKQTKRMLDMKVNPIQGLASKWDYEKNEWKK

[4] = molecular target: T4, HeLa cell extract proteins (Homo sapiens, UniProt P29401)
T4 construct: endogenous in cells; host or cells: HeLa cell extract
T4 sequence (P29401 1-623): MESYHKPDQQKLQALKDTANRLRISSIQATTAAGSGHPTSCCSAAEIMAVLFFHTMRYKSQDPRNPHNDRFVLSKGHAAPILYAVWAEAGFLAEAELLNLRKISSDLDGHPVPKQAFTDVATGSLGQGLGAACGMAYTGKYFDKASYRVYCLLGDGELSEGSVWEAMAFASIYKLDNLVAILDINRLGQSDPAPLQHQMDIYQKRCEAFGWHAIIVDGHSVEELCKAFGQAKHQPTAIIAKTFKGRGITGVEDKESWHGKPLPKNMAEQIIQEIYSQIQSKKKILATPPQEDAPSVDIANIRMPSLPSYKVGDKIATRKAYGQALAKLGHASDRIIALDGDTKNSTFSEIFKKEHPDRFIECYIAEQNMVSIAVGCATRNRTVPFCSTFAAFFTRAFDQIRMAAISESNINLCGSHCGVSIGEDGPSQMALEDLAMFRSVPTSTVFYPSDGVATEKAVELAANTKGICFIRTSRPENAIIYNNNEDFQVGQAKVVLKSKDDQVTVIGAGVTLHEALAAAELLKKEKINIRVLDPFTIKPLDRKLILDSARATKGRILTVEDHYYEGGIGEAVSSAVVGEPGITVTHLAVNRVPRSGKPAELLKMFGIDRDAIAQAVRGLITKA

[5] = molecular target: T5, HeLa cell extract proteins (Homo sapiens, UniProt P30740)
T5 construct: endogenous in cells; host or cells: HeLa cell extract
T5 sequence (P30740 1-379): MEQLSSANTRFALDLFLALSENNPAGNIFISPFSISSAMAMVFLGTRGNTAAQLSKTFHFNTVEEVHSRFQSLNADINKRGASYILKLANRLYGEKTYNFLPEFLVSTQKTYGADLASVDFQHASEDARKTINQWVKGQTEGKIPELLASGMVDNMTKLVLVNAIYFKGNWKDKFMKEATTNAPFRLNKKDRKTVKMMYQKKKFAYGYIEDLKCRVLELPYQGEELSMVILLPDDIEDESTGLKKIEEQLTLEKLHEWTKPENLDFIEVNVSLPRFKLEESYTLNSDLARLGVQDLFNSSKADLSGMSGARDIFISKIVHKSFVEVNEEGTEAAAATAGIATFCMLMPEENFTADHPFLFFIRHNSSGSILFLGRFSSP

[6] = molecular target: T6, HeLa cell extract proteins (Homo sapiens, UniProt P61106)
T6 construct: endogenous in cells; host or cells: HeLa cell extract
T6 sequence (P61106 whole entry): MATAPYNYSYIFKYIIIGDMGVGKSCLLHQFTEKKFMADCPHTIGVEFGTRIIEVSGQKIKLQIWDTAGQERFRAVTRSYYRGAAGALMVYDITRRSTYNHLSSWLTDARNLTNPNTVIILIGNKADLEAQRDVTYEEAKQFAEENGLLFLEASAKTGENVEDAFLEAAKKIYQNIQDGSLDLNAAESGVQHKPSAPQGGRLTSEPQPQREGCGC

[7] = molecular target: T7, HeLa cell extract proteins (Homo sapiens, UniProt Q07021)
T7 construct: endogenous in cells; host or cells: HeLa cell extract
T7 sequence (Q07021 74-282): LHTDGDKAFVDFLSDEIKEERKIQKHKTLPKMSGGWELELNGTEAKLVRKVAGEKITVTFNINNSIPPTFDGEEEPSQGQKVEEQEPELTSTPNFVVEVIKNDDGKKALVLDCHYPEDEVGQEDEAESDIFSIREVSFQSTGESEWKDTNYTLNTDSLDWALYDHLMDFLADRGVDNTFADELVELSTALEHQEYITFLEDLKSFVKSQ

[8] = molecular target: T8, HeLa cell extract proteins (Homo sapiens, UniProt Q96JN8)
T8 construct: endogenous in cells; host or cells: HeLa cell extract
T8 sequence (Q96JN8 whole entry): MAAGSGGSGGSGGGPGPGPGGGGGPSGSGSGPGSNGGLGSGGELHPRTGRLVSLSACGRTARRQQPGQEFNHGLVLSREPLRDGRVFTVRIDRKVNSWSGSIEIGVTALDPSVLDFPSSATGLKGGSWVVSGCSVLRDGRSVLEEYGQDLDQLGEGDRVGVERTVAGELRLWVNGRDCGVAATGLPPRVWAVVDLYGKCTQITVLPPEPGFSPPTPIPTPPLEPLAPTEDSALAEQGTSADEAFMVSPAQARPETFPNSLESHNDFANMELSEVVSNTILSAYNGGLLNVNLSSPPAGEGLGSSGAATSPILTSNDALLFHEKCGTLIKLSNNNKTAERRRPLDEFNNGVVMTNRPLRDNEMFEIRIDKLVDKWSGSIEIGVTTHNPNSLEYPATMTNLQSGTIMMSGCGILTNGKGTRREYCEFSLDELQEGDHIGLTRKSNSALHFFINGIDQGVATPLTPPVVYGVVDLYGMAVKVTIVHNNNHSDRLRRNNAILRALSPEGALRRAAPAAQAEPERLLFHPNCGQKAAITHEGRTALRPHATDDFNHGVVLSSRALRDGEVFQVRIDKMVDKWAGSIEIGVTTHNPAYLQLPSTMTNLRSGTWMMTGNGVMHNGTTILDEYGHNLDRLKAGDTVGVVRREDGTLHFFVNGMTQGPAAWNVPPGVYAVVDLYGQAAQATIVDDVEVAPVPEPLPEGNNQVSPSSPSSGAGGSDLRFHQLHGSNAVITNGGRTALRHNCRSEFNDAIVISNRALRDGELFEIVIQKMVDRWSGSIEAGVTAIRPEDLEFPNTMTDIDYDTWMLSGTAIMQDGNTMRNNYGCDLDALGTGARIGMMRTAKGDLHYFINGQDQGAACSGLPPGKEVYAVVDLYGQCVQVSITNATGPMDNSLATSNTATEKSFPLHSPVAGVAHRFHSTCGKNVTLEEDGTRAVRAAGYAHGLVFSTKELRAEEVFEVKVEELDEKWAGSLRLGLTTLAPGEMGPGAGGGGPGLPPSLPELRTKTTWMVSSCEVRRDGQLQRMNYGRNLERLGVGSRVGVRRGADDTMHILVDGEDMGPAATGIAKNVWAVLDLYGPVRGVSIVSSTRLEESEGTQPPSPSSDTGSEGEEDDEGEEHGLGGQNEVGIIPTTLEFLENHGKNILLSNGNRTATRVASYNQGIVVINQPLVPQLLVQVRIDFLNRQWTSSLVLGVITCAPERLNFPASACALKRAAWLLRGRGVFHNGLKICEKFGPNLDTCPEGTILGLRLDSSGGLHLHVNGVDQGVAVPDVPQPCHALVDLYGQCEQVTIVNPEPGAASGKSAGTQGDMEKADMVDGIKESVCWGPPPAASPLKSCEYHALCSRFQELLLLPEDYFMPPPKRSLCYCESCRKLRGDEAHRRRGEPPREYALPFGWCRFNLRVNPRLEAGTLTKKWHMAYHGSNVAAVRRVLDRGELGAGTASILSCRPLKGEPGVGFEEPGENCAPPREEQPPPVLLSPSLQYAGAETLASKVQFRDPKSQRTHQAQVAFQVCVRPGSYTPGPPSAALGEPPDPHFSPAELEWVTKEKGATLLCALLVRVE

[9] = molecular target: T9, HeLa cell extract proteins (Homo sapiens, UniProt Q9H479)
T9 construct: endogenous in cells; host or cells: HeLa cell extract
T9 sequence (Q9H479 1-309): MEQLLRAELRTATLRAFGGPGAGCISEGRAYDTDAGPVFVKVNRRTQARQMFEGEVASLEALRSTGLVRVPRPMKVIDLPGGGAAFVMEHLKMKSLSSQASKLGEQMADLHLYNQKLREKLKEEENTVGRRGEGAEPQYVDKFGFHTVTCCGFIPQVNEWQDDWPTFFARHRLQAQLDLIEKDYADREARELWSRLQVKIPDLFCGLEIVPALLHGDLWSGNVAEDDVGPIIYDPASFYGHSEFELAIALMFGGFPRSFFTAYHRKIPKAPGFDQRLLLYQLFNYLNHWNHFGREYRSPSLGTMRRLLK

[10] = HeLa, protein FN3K (FRUCTOSAMINE-3-KINASE)

T1 sequence (P06576 48-529): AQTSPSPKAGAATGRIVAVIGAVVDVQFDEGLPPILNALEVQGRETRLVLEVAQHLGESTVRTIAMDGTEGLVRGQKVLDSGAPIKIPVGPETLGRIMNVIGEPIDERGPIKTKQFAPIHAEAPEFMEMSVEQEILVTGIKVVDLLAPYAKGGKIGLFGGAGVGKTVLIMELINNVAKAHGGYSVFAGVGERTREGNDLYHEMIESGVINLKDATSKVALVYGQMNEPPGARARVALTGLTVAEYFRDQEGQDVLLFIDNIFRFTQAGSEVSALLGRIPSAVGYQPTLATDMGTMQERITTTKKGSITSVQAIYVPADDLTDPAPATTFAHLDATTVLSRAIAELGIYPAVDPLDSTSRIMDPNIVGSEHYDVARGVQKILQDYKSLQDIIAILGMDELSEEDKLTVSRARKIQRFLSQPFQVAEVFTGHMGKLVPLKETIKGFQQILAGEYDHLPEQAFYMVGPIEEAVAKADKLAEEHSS

SMILES | fold changes relative to vehicle control ([1]; HeLa, captured protein ATP5B) | fold changes relative to vehicle control ([2]; HeLa, protein XRCC6) | fold changes relative to vehicle control ([3]; HeLa, protein COX4I1) | fold changes relative to vehicle control ([4]; HeLa, protein TKT) | fold changes relative to vehicle control ([5]; HeLa, protein SERPINB1) | fold changes relative to vehicle control ([6]; HeLa, protein RAB14) | fold changes relative to vehicle control ([7]; HeLa, protein C1QBP) | fold changes relative to vehicle control ([8]; HeLa, protein KIAA1787) | fold changes relative to vehicle control [9, 10] | fold changes relative to vehicle control ([1]; protein ATP5B, HeLa) | fold changes relative to vehicle control ([2]; protein XRCC6, HeLa) | fold changes relative to vehicle control ([4]; protein TKT, HeLa) | fold changes relative to vehicle control ([5]; protein SERPINB1, HeLa) | fold changes relative to vehicle control ([6]; captured protein RAB14, HeLa) | fold changes relative to vehicle control ([7]; protein C1QBP, HeLa) | fold changes relative to vehicle control ([8]; protein KIAA1787, HeLa) | fold changes relative to vehicle control ([9]; protein FN3K, HeLa) | also measured
Nc1nc2c(c(=O)[nH]1)N(C=O)C(CNc1ccc(C(=O)N[C@@H](CCC(=O)O)C(=O)O)cc1)CN2 (stereo partly drawn) [LEU, leucovorin] | 1.09 | 0.96 | 0.9 | 1.12 | 0.98 | 0.95 | 0.85 | 1.16 | 0.93 | – | – | – | – | – | – | – | – | –
Nc1nc2[nH]cc(CCc3ccc(C(=O)N[C@@H](CCC(=O)O)C(=O)O)cc3)c2c(=O)[nH]1 [PTX, pemetrexed] | – | – | – | – | – | – | – | – | – | – | – | – | – | – | – | – | – | fold changes relative to vehicle control [1]: 1.07; fold changes relative to vehicle control [2]: 1.02; fold changes relative to vehicle control [3]: 0.98; fold changes relative to vehicle control [4]: 1.2; fold changes relative to vehicle control [5]: 1.06; fold changes relative to vehicle control [6]: 0.95; fold changes relative to vehicle control [7]: 0.92; fold changes relative to vehicle control [8]: 1.07; fold changes relative to vehicle control [9]: 0.88
CCCCCCOc1ccc(Cc2cnc(N)nc2N)cc1 [compound 1] | – | – | 1.03 | – | – | – | – | – | – | 1.02 | 1.13 | 1.41 | 1.07 | 0.89 | 1.12 | 1.03 | 0.92 | –
CCCCCCOc1cccc(Cc2cnc(N)nc2N)c1 [compound 2] | – | – | 1.21 | – | – | – | – | – | – | 0.83 | 1.93 | 2.08 | 1.28 | 1.22 | 1.27 | 0.98 | 1.06 | –
Nc1nc2cccc(-c3ccccc3)c2n1Cc1ccc(Cl)c(Cl)c1 [compound 3] | – | – | 1 | – | – | – | – | – | – | 0.96 | 0.92 | 0.9 | 0.98 | 0.82 | 1 | 1.09 | 1.09 | –
NCCOCCOCC(=O)Nc1nc2ncc(CNc3ccc(C(=O)NC(CCC(=O)O)C(=O)O)cc3)nc2c(=O)[nH]1 (stereo not drawn) [compound 6] | 0.96 | 1.09 | 1.04 | 1.26 | 1.09 | 0.97 | 0.92 | 1.11 | 0.94 | – | – | – | – | – | – | – | – | –
NCCCNc1ccc(C(=O)NC(CCC(=O)O)C(=O)O)cc1 (stereo not drawn) [compound 7] | 1.04 | 0.92 | 1.17 | 0.99 | 0.99 | 0.86 | 0.78 | 1.21 | 0.99 | – | – | – | – | – | – | – | – | –
